According to patent publication US10633704B2, “Diagnostic and immunotherapy compositions and methods for disease states mediated by inhibitor-resistant CD8 T-cells” (priority 2010, dated 2020):
“Also recorded” adds a separate entry of the source.

System: CD8bm12-1 T cell clone
Test: Proliferation assay (3H-thymidine) of CsA/RAPA-resistant CD8 T cell clone CD8bm12-1 activated by immobilized anti-CD3 without or with anti-CD28
Format: cell-based, mouse (C57BL/6)
Description: Proliferation assays were done with anti-CD3 (145-2Cl 1) without or with anti-CD28 (37.51). Antibodies in 50 μl of PBS/well were used to coat 96-well tissue culture plates (Costar) overnight at 4° C. Antibodies were shaken off and wells washed 1× with 150 μl of RPMI complete media prior to their use in proliferation assays. Experimental wells were pulsed with 0.5 μCi/well ^3H-thymidine (ICN, Costa Mesa, Calif.) for 10-12 hours at 24-36 or 36-48 hours of the culture cycle. Cyclosporine A (Sigma Chemical Co.; St. Louis, Mo.) dissolved in 200 proof ethanol and CH-223191 (Calbiochem; San Diego, Calif.) dissolved in dimethylsulfoxide were used at indicated concentrations. The no treatment controls in each experiment included vehicle controls for both ethanol and dimethylsulfoxide.
FIGS. 6A and 6B show proliferation plots of CD8bm1 (▪) and CD8bm12-1 (●), both activated by immobilized anti-CD3 and exposed to a full range of cyclosporine A (the results shown in FIGS. 6A and 6B result from two separate experiments conducted).

In the case of `Cc1ccccc1N=Nc1ccc(NC(=O)c2ccnn2C)c(C)c1` [CH-223191], the “effect on proliferation of CD8bm12-1” value (media with 1 ug/ml CsA, anti-CD3, CH-223191 3 uM) is reported as “no effect”, the “effect on proliferation of CD8bm12-1” value (media with 1 ug/ml CsA, anti-CD3, CH-223191 10 uM) is reported as “moderate inhibitory effect” and the “effect on proliferation of CD8bm12-1” value (media with 1 ug/ml CsA, anti-CD3, CH-223191 30 uM) is reported as “dramatic inhibitory effect; also recorded: completely blocked”. For the same molecule, the “effect on proliferation of CD8bm12-1” value (media with 1 ug/ml CsA, anti-CD3 and anti-CD28, CH-223191 30 uM) was “completely blocked proliferation”, the “effect on proliferation of CD8bm12-1” value (media without CsA, anti-CD3, CH-223191 at 30 uM, 10 uM or 3 uM) was “no discernable negative effect” and the “effect on proliferation of CD8bm12-1” value (media without CsA, anti-CD3 and anti-CD28, CH-223191) was “little discernable effect”.
